Test results from the supplement of paper PMC13380429.

Assays:
[1] = tested on: HepG2; test: cell viability relative to DMSO; higher = less toxic; conditions: 72 h
[2] = tested on: Calu-3; test: as above; conditions: 72 h
[3] = tested on: Caco-2; test: as above; conditions: 72 h
[4] = tested on: U2OS; test: as above; conditions: 72 h
[5] = tested on: Vero E6; test: as above; conditions: 72 h
[6] = tested on: HepG2; test: drug sensitivity score (DSS) for viability; higher = more toxic; extreme values may be limits of the assay; conditions: 72 h
[7] = tested on: Calu-3; test: as above; conditions: 72 h
[8] = tested on: Caco-2; test: as above; conditions: 72 h
[9] = tested on: U2OS; test: as above; conditions: 72 h
[10] = tested on: Vero E6; test: as above; conditions: 72 h
[11] = tested on: A549-ACE2 infected with SARS-CoV-2; test: cell count relative to DMSO; higher = less toxic; conditions: 24 h
[12] = tested on: A549-ACE2; test: drug-induced phospholipidosis relative to tamoxifen; higher = more phospholipidosis
[13] = tested on: A549-ACE2 infected with SARS-CoV-2; test: morphology score (similarity to uninfected cells); higher = more like uninfected cells; conditions: 24 h
[14] = tested on: HepG2; test: relative viability EC50 (midpoint between 100% and the lowest measured viability); higher = less toxic; conditions: 72 h
[15] = tested on: Caco-2; test: as above; conditions: 72 h
[16] = tested on: U2OS; test: as above; conditions: 72 h
[17] = tested on: Vero E6; test: as above; conditions: 72 h
[18] = tested on: A549-ACE2 infected with SARS-CoV-2; test: SARS-CoV-2 infection rate relative to DMSO; higher = more infection; conditions: 24 h
[19] = tested on: Calu-3; test: relative viability EC50 (midpoint between 100% and the lowest measured viability); higher = less toxic; conditions: 72 h
[20] = tested on: A549-ACE2; test: phospholipidosis EC50; higher = less potent phospholipidosis inducer

c1cnc2c([O][Ga]([O]c3cccc4cccnc34)[O]c3cccc4cccnc34)cccc2c1 [gallium-triquinolin-8-olate]
Conditions	SARS-CoV-2 infection rate, [18] [%]	cell count, [11] [%]	cell viability, [1] [%]	cell viability, [2] [%]	cell viability, [3] [%]	cell viability, [4] [%]	cell viability, [5] [%]	morphology score, [13]
1 nM	–	–	96.5	95.9	94.3	97	116	–
10 nM	–	–	102	111	104	105	103	–
100 nM	–	–	118	97.6	89.1	100	106	–
0.3 µM	98	103	–	–	–	–	–	0.25
1000 nM	–	–	97.1	110	116	102	102	–
3 µM	50	73	–	–	–	–	–	0.64
10000 nM	–	–	2.2	51.7	6.6	19.7	87.7	–
10 µM	23	69	–	–	–	–	–	0.75
30 µM	23	35	–	–	–	–	–	0.35

Conditions	drug sensitivity score	relative viability EC50 [µM]
[6]	5.8	–
[7]	2	–
[8]	4.3	–
[9]	4.2	–
[10]	0	–
[14]	–	2.96
[15]	–	3.85
[16]	–	3.34
[17]	–	> 10

drug-induced phospholipidosis [%], [12]
Conditions	0.3 µM	0.833333 µM	3.33333 µM
24 h	3.04	1.03	-5.09
48 h	1.4	-0.94	–
72 h	3.03	0.0941	–

COC(=O)C[C@](O)(CCC(C)(C)O)C(=O)O[C@@H]1C(OC)=C[C@]23CCCN2CCc2cc4c(cc2[C@H]13)OCO4 [harringtonine]
Conditions	SARS-CoV-2 infection rate, [18] [%]	cell count, [11] [%]	cell viability, [1] [%]	cell viability, [2] [%]	cell viability, [3] [%]	cell viability, [4] [%]	cell viability, [5] [%]	morphology score, [13]
1 nM	–	–	103	93.2	108	95.9	105	–
10 nM	–	–	108	98.7	94.6	99.2	100	–
100 nM	–	–	45.7	81	73.5	46.8	109	–
0.3 µM	5	92	–	–	–	–	–	0.57
1000 nM	–	–	11.1	34.9	56.3	11	34.2	–
3 µM	21	62	–	–	–	–	–	0.26
10000 nM	–	–	0.3	24.9	53.6	0.9	9.1	–
10 µM	12	50	–	–	–	–	–	0.27
30 µM	33	37	–	–	–	–	–	0.29

Conditions	drug sensitivity score	relative viability EC50 [µM]
[6]	24.5	–
[7]	14.3	–
[8]	11.3	–
[9]	23.5	–
[10]	12.6	–
[14]	–	0.0934
[16]	–	0.0946
[17]	–	0.686
[19]	–	0.233

[12], 24 h
Conditions	drug-induced phospholipidosis [%]
0.3 µM	0.19
0.833333 µM	-6.78

CN1CCCC(CN2c3ccccc3Sc3ccccc32)C1 (stereo not drawn) [mepazine]
Conditions	SARS-CoV-2 infection rate [%]	cell count [%]	cell viability [%]	morphology score	phospholipidosis EC50 [µM]
[1], 1 nM	–	–	98.3	–	–
[1], 10 nM	–	–	102	–	–
[1], 100 nM	–	–	100	–	–
[1], 1000 nM	–	–	87.9	–	–
[1], 10000 nM	–	–	84.8	–	–
[2], 1 nM	–	–	106	–	–
[2], 10 nM	–	–	99.2	–	–
[2], 100 nM	–	–	99.3	–	–
[2], 1000 nM	–	–	99.5	–	–
[2], 10000 nM	–	–	72.8	–	–
[3], 1 nM	–	–	94.1	–	–
[3], 10 nM	–	–	98.3	–	–
[3], 100 nM	–	–	98.2	–	–
[3], 1000 nM	–	–	101	–	–
[3], 10000 nM	–	–	85.7	–	–
[4], 1 nM	–	–	99.1	–	–
[4], 10 nM	–	–	98.6	–	–
[4], 100 nM	–	–	98.6	–	–
[4], 1000 nM	–	–	100	–	–
[4], 10000 nM	–	–	91.4	–	–
[5], 1 nM	–	–	101	–	–
[5], 10 nM	–	–	101	–	–
[5], 100 nM	–	–	103	–	–
[5], 1000 nM	–	–	97.1	–	–
[5], 10000 nM	–	–	94.8	–	–
[11], 0.3 µM	–	103	–	–	–
[11], 3 µM	–	112	–	–	–
[11], 10 µM	–	122	–	–	–
[11], 30 µM	–	113	–	–	–
[13], 0.3 µM	–	–	–	0.02	–
[13], 3 µM	–	–	–	0.61	–
[13], 10 µM	–	–	–	0.86	–
[13], 30 µM	–	–	–	0.32	–
[18], 0.3 µM	102	–	–	–	–
[18], 3 µM	59	–	–	–	–
[18], 10 µM	16	–	–	–	–
[18], 30 µM	27	–	–	–	–
[20], 24 h	–	–	–	–	3.88
[20], 48 h	–	–	–	–	6.39
[20], 72 h	–	–	–	–	9.51

Conditions	drug sensitivity score	relative viability EC50 [µM]
[6]	1.1	–
[7]	1.2	–
[8]	0.1	–
[9]	0	–
[10]	0	–
[14]	–	> 10
[15]	–	> 10
[16]	–	> 10
[17]	–	> 10

drug-induced phospholipidosis [%], [12]
Conditions	0.3 µM	0.833333 µM	3.33333 µM	6.66667 µM	10 µM	30 µM
24 h	2.48	6.78	32.9	53.3	64.8	70.3
48 h	1.98	4.75	20.8	48.9	65.8	86.6
72 h	3.11	3.43	18.8	39.1	63.9	101
